Data taken from ChEMBL document CHEMBL4041516, “SAR study of 5-alkynyl substituted quinazolin-4(3H)-ones as phosphoinositide 3-kinase delta (PI3Kδ) inhibitors” (Eur J Med Chem, 2017).
Values belong to the compound of their own block, whether it stands above or below them. Calls of active or inactive are those of the source. The calls are words filed in the database; no cut-off is given here.

Tests used:
SU-DHL10 = assay: Antiproliferative activity against human SU-DHL10 cells measured after 72 hrs by alamar blue assay; type: functional, cell-based; conditions: SU-DHL10, 72 h
MOLT-4 = assay: Antiproliferative activity against human MOLT4 cells measured after 72 hrs by alamar blue assay; type: functional, cell-based; conditions: MOLT-4, 72 h
[1] = target: T1, Phosphatidylinositol 4,5-bisphosphate 3-kinase catalytic subunit alpha isoform (Homo sapiens, UniProt P42336); assay: Inhibition of PI3Kalpha (unknown origin) using PIP2 as substrate measured after 30 mins by HTRF assay
Rattus norvegicus = assay: AUC (infinity) in Sprague-Dawley rat at 5 mg/kg, iv; type: ADME, organism-based; design: dose 5 mg/kg, time infinity, route intravenous; conditions: in vivo
[2] = target: T2, Phosphatidylinositol 4,5-bisphosphate 3-kinase catalytic subunit delta isoform (Homo sapiens) (UniProt O00329); assay: Inhibition of PI3Kdelta-mediated Akt phosphorylation in human SUDHL6 cells at 3 nM measured after 1 hr by Western blot analysis; type: cell-based
T2 sequence (whole entry): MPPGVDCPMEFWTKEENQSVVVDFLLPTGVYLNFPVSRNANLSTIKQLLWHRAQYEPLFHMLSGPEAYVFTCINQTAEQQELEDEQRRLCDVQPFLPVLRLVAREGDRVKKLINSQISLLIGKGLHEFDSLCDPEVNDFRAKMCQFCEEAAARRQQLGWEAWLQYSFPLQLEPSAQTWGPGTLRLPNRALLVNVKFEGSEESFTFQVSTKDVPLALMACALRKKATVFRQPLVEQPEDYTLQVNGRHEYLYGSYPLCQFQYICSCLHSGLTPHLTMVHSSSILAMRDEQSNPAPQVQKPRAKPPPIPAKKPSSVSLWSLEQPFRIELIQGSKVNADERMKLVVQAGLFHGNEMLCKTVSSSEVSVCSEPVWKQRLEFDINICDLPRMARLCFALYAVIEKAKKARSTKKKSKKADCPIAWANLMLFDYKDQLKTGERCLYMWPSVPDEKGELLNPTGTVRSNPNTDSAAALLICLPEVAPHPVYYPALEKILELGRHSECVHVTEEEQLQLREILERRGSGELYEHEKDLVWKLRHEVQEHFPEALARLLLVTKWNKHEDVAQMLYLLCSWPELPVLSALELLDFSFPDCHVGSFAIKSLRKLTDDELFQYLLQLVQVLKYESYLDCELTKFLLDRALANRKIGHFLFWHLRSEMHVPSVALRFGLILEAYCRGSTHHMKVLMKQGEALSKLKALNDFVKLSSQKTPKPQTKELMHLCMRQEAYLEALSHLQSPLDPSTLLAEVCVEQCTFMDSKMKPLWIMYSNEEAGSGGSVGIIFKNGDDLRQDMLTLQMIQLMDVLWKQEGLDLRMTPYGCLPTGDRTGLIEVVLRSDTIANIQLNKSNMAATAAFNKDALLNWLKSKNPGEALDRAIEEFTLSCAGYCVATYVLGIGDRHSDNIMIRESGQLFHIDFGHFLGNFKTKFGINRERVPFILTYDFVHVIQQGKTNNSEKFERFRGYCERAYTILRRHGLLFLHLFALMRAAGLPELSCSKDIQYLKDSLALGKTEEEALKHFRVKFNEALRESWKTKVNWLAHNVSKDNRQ

[3] = Antiproliferative activity against human WSU-DLCL2 cells measured after 72 hrs by alamar blue assay; type: functional, cell-based; conditions: WSUDLCL2, 72 h
[4] = Oral bioavailability in Sprague-Dawley rat at 10 mg/kg; type: ADME, organism-based; conditions: in vivo
[5] = target: T2, Phosphatidylinositol 4,5-bisphosphate 3-kinase catalytic subunit delta isoform (Homo sapiens); assay: Inhibition of PI3Kdelta-mediated Akt phosphorylation at […] in human MOLT4 cells measured after 1 hr by Western blot analysis; type: cell-based
HT = assay: Antiproliferative activity against human HT cells measured after 72 hrs by alamar blue assay; type: functional, cell-based
SU-DHL-6 = assay: Antiproliferative activity against human SUDHL6 cells measured after 72 hrs by alamar blue assay; type: functional, cell-based; conditions: SU-DHL-6, 72 h
[6] = target: T2, Phosphatidylinositol 4,5-bisphosphate 3-kinase catalytic subunit delta isoform (Homo sapiens); assay: Inhibition of PI3Kdelta-mediated S6k1 phosphorylation at T389 in human SUDHL6 cells measured after 1 hr by Western blot analysis; type: cell-based
[7] = target: T2, Phosphatidylinositol 4,5-bisphosphate 3-kinase catalytic subunit delta isoform (Homo sapiens); assay: Inhibition of PI3Kdelta-mediated Akt phosphorylation at […] in human SUDHL6 cells measured after 1 hr by Western blot analysis; type: cell-based
SUD4 = assay: Antiproliferative activity against human SU-DHL4 cells measured after 72 hrs by alamar blue assay; type: functional, cell-based; conditions: SU-DHL-4, 72 h
hERG (KCNH2) = hERG (KCNH2) (Homo sapiens, UniProt Q12809); assay: Inhibition of human ERG at 40 uM relative to control
[8] = target: T2, Phosphatidylinositol 4,5-bisphosphate 3-kinase catalytic subunit delta isoform (Homo sapiens); assay: Inhibition of PI3Kdelta-mediated S6k1 phosphorylation at T389 in human MOLT4 cells measured after 1 hr by Western blot analysis; type: cell-based
NAMALVA = assay: Antiproliferative activity against human NAMALWA cells measured after 72 hrs by alamar blue assay; type: functional, cell-based
[9] = AUClast in Sprague-Dawley rat at 5 mg/kg, iv; type: ADME, organism-based; design: dose 5 mg/kg, time 0 - last, route intravenous; conditions: in vivo
SU-DHL-1 = assay: Antiproliferative activity against human SU-DHL1 cells measured after 72 hrs by alamar blue assay; type: functional, cell-based; conditions: SU-DHL-1, 72 h
[10] = AUClast in Sprague-Dawley rat at 10 mg/kg, po; type: ADME, organism-based; design: dose 10 mg/kg, time 0 - last, route oral; conditions: in vivo
[11] = AUC (infinity) in Sprague-Dawley rat at 10 mg/kg, po; type: ADME, organism-based; design: dose 10 mg/kg, route oral, time infinity; conditions: in vivo
[12] = Volume of distribution in Sprague-Dawley rat at 5 mg/kg, iv; type: ADME, organism-based; conditions: in vivo
KARPAS-422 = assay: Antiproliferative activity against human KARPAS422 cells measured after 72 hrs by alamar blue assay; type: functional, cell-based; conditions: KARPAS-422, 72 h
[13] = target: T3, Phosphatidylinositol 4,5-bisphosphate 3-kinase catalytic subunit delta isoform (Homo sapiens, UniProt O00329); assay: Inhibition of PI3Kdelta (unknown origin) using PIP2 as substrate measured after 30 mins by HTRF assay
T3 sequence (O00329 whole entry): T2 sequence (whole entry)

[14] = target: Voltage-gated inwardly rectifying potassium channel KCNH2 (Homo sapiens, UniProt Q12809); assay: Inhibition of human ERG; conditions: read-out: IC50
Pfeiffer = assay: Antiproliferative activity against human Pfeiffer cells measured after 72 hrs by alamar blue assay; type: functional, cell-based
[15] = target: Phosphatidylinositol 4,5-bisphosphate 3-kinase catalytic subunit beta isoform (Homo sapiens, UniProt P42338); assay: Inhibition of PI3Kbeta (unknown origin) using PIP2 as substrate measured after 30 mins by HTRF assay
[16] = Half life in Sprague-Dawley rat at 10 mg/kg, po; type: ADME, organism-based; conditions: in vivo
[17] = Half life in Sprague-Dawley rat at 5 mg/kg, iv; type: ADME, organism-based; conditions: in vivo
[18] = target: T4, Phosphatidylinositol 4,5-bisphosphate 3-kinase catalytic subunit gamma isoform (Homo sapiens, UniProt P48736); assay: Inhibition of PI3Kgamma (unknown origin) using PIP2 as substrate measured after 30 mins by HTRF assay
[19] = target: T4, Phosphatidylinositol 4,5-bisphosphate 3-kinase catalytic subunit gamma isoform; assay: Inhibition of PI3Kgamma (unknown origin) using biotinylated PIP2 as substrate after 2 hrs by TR-FRET assay
[20] = target: T3, Phosphatidylinositol 4,5-bisphosphate 3-kinase catalytic subunit delta isoform; assay: Inhibition of PI3Kdelta (unknown origin) using biotinylated PIP2 as substrate after 2 hrs by TR-FRET assay
[21] = target: T1, Phosphatidylinositol 4,5-bisphosphate 3-kinase catalytic subunit alpha isoform; assay: Inhibition of PI3Kalpha (unknown origin) using biotinylated PIP2 as substrate after 2 hrs by TR-FRET assay
U-937 = assay: Inhibition of phorbol 12-myristate 13-acetate-induced peroxide production in human U937 cells; type: functional, cell-based

T4 sequence (P48736 whole entry, canonical isoform): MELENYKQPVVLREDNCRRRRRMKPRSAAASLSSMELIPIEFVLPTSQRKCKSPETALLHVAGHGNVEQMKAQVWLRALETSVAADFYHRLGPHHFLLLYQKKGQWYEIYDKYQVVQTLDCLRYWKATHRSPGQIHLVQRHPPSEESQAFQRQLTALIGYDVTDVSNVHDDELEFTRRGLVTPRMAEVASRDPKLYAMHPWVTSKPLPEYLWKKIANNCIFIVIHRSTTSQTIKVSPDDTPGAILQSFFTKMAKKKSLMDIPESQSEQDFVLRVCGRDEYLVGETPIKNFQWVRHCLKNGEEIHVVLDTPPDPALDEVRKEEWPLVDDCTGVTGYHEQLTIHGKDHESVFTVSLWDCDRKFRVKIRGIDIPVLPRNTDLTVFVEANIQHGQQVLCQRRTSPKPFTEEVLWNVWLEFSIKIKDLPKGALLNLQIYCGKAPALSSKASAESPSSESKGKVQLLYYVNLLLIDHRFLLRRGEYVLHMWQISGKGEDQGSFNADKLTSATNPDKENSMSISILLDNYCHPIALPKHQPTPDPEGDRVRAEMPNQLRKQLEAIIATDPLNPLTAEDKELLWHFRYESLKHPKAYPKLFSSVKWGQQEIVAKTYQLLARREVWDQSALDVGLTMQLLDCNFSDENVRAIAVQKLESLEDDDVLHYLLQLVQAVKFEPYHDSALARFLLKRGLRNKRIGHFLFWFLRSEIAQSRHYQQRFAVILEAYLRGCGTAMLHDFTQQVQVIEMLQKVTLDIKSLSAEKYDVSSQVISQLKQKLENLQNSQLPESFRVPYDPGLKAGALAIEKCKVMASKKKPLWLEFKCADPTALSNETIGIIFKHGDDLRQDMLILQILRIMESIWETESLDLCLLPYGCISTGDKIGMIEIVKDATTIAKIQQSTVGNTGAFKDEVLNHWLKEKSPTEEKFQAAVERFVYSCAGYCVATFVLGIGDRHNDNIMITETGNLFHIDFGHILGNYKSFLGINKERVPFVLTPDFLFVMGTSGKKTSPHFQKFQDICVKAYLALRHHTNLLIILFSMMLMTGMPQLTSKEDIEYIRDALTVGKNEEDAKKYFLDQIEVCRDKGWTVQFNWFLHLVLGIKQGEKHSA
T1 sequence (P42336 whole entry, canonical isoform): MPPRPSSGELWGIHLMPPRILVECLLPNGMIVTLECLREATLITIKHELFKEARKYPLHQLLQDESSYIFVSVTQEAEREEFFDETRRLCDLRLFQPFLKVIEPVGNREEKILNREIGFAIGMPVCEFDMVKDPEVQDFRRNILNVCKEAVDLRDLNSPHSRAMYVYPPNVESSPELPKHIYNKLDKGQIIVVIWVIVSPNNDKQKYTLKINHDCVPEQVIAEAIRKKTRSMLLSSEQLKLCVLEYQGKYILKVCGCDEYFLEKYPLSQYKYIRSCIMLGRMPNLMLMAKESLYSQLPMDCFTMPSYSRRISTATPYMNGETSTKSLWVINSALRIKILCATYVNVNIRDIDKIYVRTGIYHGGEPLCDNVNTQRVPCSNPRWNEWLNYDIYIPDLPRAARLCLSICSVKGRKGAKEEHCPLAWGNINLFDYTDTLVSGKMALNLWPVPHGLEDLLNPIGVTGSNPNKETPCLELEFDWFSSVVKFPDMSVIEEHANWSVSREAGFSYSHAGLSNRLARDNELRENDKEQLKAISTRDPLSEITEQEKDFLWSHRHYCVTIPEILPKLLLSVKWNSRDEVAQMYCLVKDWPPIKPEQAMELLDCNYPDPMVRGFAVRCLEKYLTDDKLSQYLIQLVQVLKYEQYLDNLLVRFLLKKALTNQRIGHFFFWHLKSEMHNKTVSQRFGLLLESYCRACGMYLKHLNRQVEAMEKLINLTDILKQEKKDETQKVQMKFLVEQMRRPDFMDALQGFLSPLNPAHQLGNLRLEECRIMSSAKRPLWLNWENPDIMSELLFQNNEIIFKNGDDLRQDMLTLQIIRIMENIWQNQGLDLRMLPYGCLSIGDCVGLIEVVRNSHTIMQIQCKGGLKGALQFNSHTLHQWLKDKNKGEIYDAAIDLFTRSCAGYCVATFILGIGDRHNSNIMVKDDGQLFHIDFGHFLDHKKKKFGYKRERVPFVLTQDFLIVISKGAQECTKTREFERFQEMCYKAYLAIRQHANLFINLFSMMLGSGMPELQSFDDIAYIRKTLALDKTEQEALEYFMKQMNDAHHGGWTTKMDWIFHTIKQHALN
Sequence of Phosphatidylinositol 4,5-bisphosphate 3-kinase catalytic subunit beta isoform (P42338 whole entry, canonical isoform): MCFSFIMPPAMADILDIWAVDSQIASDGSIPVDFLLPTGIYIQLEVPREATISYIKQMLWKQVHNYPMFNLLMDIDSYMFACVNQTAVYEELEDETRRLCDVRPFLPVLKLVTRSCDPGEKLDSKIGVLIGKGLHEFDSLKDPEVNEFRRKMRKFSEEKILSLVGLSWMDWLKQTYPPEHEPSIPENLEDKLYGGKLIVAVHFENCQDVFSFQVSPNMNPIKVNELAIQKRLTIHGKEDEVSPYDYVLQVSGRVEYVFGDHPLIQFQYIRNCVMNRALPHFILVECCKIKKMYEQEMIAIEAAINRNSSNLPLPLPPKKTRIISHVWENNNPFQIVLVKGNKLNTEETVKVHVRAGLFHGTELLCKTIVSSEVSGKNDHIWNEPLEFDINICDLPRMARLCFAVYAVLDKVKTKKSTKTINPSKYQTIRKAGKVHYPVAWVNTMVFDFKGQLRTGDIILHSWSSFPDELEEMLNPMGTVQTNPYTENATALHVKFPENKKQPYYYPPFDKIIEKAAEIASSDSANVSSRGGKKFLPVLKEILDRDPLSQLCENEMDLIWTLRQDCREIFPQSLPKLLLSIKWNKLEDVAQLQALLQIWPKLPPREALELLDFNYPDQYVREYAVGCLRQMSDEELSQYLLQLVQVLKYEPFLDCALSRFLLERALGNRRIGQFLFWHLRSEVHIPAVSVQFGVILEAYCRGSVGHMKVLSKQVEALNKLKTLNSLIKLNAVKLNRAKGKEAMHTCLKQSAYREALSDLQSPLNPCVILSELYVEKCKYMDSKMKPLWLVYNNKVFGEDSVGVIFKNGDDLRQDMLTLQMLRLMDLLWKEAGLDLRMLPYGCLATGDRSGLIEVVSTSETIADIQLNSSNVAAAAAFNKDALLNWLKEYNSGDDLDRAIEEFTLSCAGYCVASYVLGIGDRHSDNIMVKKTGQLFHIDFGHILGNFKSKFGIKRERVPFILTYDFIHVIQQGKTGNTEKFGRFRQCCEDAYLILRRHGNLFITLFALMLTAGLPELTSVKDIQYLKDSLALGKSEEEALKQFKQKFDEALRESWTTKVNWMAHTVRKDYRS
Sequence of hERG (KCNH2) (Q12809 whole entry, canonical isoform): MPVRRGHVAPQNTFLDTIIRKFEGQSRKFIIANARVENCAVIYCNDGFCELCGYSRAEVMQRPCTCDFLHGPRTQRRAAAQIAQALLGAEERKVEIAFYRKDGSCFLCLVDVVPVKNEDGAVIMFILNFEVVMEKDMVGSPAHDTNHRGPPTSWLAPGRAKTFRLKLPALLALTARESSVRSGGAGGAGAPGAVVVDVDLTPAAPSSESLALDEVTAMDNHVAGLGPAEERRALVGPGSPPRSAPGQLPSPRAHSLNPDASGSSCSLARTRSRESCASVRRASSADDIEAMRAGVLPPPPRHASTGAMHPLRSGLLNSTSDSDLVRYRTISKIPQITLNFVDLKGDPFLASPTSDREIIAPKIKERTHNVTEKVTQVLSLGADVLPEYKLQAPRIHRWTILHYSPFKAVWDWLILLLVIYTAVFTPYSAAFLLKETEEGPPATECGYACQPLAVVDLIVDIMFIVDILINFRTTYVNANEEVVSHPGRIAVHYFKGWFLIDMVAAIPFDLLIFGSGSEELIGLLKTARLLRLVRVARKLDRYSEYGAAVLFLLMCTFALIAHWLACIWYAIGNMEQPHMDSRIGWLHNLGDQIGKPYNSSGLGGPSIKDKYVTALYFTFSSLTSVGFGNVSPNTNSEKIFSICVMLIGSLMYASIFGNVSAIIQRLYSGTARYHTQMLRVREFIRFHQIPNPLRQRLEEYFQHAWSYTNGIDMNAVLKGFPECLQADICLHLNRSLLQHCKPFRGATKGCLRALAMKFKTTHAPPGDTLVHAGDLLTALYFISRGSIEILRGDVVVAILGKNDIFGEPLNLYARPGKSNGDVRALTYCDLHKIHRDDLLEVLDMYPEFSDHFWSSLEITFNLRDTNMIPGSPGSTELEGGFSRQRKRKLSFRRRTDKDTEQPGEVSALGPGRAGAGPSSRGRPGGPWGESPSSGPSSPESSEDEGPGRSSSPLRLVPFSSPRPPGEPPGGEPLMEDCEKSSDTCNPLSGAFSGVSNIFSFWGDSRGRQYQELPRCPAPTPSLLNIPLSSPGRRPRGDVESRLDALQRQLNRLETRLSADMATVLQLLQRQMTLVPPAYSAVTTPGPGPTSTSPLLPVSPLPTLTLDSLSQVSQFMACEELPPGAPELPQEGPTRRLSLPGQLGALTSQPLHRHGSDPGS

- IC50 (SU-DHL10): 1.9 µM
- IC50 (MOLT-4): 2.4 µM
- IC50 [1]: 0.591 µM
- AUC (Rattus norvegicus): 1057 ng·h/mL
- inhibition [2]: Active
- bioavailability [4]: 29.7%
- inhibition [5]: Dose-dependent effect
- IC50 (SU-DHL-6): 0.0076 µM
- inhibition [6]: Dose-dependent effect
- inhibition [7]: Dose-dependent effect
- inhibition [8]: Dose-dependent effect
- AUC(0-t) [9]: 1050 ng·h/mL
- IC50 (SU-DHL-1): 5.6 µM
- AUC(0-t) [10]: 938 ng·h/mL
- AUC(0-inf) [11]: 958 ng·h/mL
- Vd [12]: 0.545 L/kg
- IC50 (KARPAS-422): 2 µM
- IC50 [13]: 0.00382 µM
- IC50 [15]: 0.509 µM
- half-life [16]: 1.46 h
- half-life [17]: 1.28 h
- IC50 [18]: 0.0919 µM
SMILES: CC[C@H](Nc1nc(N)nc(N)c1C#N)c1nc2cccc(C#CCCCC(=O)N3CCOCC3)c2c(=O)n1-c1ccccc1
- IC50 [3]: 5.7 µM
- IC50 (HT): 4.9 µM
- IC50 (SUD4): 1.6 µM
- inhibition at 40 µM (hERG (KCNH2)): 34.1%
- IC50 (NAMALVA): 3.3 µM
- IC50 [14]: > 40 µM
- IC50 (Pfeiffer): 1.4 µM

- IC50 [19]: 0.047 µM
- IC50 [20]: 0.003 to 0.012 µM
- IC50 [21]: 1.49 µM
- IC50 (U-937): 0.0011 µM
SMILES: COCCOCCNC(=O)CCCC#Cc1cccc2nc(Cn3nc(-c4cccc(O)c4)c4c(N)ncnc43)n(Cc3ccccc3Cl)c(=O)c12
